These results are taken from a melting point compilation (Tetko et al.; mined from patent text by program, amines drawn as free bases though some values may be those of a salt).

Usually melting point stands for the temperature of the solid-liquid transition. For the molecule `O=C(CCSC(=S)Nc1ccc(Cl)cn1)c1ccccc1`, the melting point came to 159 °C.
`NC(=O)c1nc(CN2CCOCC2)n(-c2ccc(Cl)cc2C(=O)c2ccccc2Cl)n1`: the melting point fell in the range of 165 to 167 °C.
`COc1c(N2CC3CC3(CN)C2)c(F)cc2c(=O)c(C(=O)O)cn(C3CC3)c12` (stereo not given): the melting point fell in the range of 194 to 196 °C.
Regarding `O=[N+]([O-])c1cc(NC(=S)N2CCCCN2)c(F)cc1Cl`, the melting point lay in the range of 118 to 120 °C.
The result for `Cc1cc(Cl)ccc1N1CN(C)CN(C)C1=S` reads 103 to 105 °C; that for `CCCc1nc(SC)c(C(O)CO)n1Cc1ccc(-c2ccccc2S(=O)(=O)NC(=O)NCc2ccccc2)cc1` (stereo not given), 140 °C.
The result for `CN(C)CCCOc1cc(F)c(-c2c(Cl)nc(-n3ccnc3)nc2NCC(F)(F)F)c(F)c1` reads 47 to 49 °C; that for `COC(=O)c1ccc(-c2cc(-c3ccccc3)no2)cc1`, 205 to 206 °C.
The result for `COc1cc(OS(C)(=O)=O)ccc1C1=NC2=NC=NC(=O)C2=N1` reads 288 to 291 °C; that for `CCc1ccc2c(c1)C=Cc1cc(C)ccc1C2c1cn(-c2ccnc(N3CC(C(=O)O)C3)n2)c(=O)[nH]c1=O` (stereo not given), 244 °C.
`Brc1cccc(C2Cc3cnc(Nc4ccc(CCNc5ccccc5)cc4)nc3-c3ccccc32)c1` (stereo not given) came in with a melting point of 92 to 94 °C.
As for `O=[N+]([O-])c1ccc(F)c(-c2ccc(CO)cc2)c1`, the melting point is 106 to 108 °C.
As for `CCOC(=O)CNC(=O)c1nc2ccc(NCCCN3CCC(OC(c4ccccc4)c4ccccc4)CC3)nn2c1C`, the figure is 158 to 160 °C; as for `O=C(O)Cc1ccc2c(c1)NC(=O)CO2`, 237 to 239 °C.
Turning to `CCCCCCCCCCCCCCCCS[C@H]1CCCO[C@H]1CO` (relative stereo), the melting point was 52 to 53 °C.
`COc1cc(CN/C=C2\C(=O)NC(=O)c3ccc(-c4ccc(Cl)cc4)cc32)cc(O)c1OC` gave a melting point of 240 to 241 °C.
For `COC(=O)c1ccc(-c2nn(Cc3ccccc3)c3ccc(N)cc23)o1`, the melting point is 195 to 196 °C.
`COc1ccncc1-c1ccc(OC2SCC(O)C(O)C2O)cn1` (stereo not given) had a melting point of 207 °C.
On to `C=CCc1c(C)cc(C)cc1O`, for which the melting point is 51 °C.
`CCOC(=O)c1sccc1S(N)(=O)=O`: the melting point came out at 136 °C.
The molecule `CN(CCCS(=O)CCCC(F)(F)C(F)(F)F)CCOc1ccc(C2=C(c3ccccc3)CCCc3cc(O)ccc32)cc1` (stereo not given) returned a melting point of 63 to 65 °C.
`CC12CCC3c4ccc(O)cc4CC(O)C3C1CCC2O` (stereo not given) showed a melting point of 254 to 257 °C.
For the molecule `CNC=Nc1ccc(-c2c[nH]cn2)cc1`, the melting point lay within 189 to 190 °C.
The result for `CC(C(N)=O)c1ccc2c(c1)C(=O)Cc1ccc(Cl)cc1S2` (stereo not given) reads 207 to 208 °C; that for `CCCCCCCCCCCCCCCCCCOC(=O)CCc1cc(C)c(O)c(C(C)(C)C)c1`, 58 to 59 °C.
The result for `COCCc1sc(C(O)(c2nc(C)c(CCOC)s2)C(F)(F)F)nc1C` reads 68 to 69 °C; that for `COc1ccc2c(c1)C(CC#N)C(=O)CC2` (stereo not given), 97 to 99 °C.
As for `CN(C)C(=S)ON1C(=O)C2CCCCC2C1=O` (stereo not given), the figure is 124 to 126 °C; as for `O=C(O)c1cn(CCF)c2cc(Cl)c(F)cc2c1=O`, 262 to 264 °C.
`Cc1ccc(S(=O)(=O)n2c(CCC(=O)O)cc3cc(Cl)ccc32)cc1`: the melting point was 165 to 168 °C.
For the molecule `CN(C)C(=O)C(C1CCCCC1)n1ccc(-c2ccccc2)n1` (stereo not given), the melting point was 87.5 to 90 °C.
As for `O=c1c2cc(SC(F)(F)F)ccc2ccn2cccc12`, the figure is 155 to 159 °C; as for `COc1nc(SCc2ccccc2)ncc1Br`, 48 to 49 °C.
As for `COc1ccc(C(=O)Nc2ccc(C(C)(C)CNC(=O)c3nc4ccc(F)cc4[nH]3)cc2)cc1OC`, the figure is 222 to 224 °C; as for `Cc1cc(Oc2ncc(C(F)(F)F)cc2Cl)nn1C(=O)Nc1cccc(C(F)(F)F)c1`, 123 to 124 °C.
`CCOC(=O)Cn1c2c([nH]c(=O)c1=O)CCC1=C2C=C(n2ccc(C(=O)O)c2)CC1` registered a melting point of 282 °C.
`CC(C)(C)NS(=O)(=O)c1ccsc1C1=CC(=O)CCC1` showed a melting point of 157 to 158 °C.
As for `O=C1N(Cc2cnccn2)c2ccccc2C12COc1cc3c(cc12)CCO3` (stereo not given), the figure is 143 to 144 °C; as for `CC(=O)OCc1cc(C)cc(Oc2nc(Cl)nc(Cl)c2C(C)C)c1`, 76 to 77 °C; as for `O=c1c2cccnc2[nH]c2ccnn12`, > 300 °C.
As for `Cc1cccc(C(=O)Cc2ccnc(N)c2)c1`, the figure is 119 to 120 °C; as for `CS(=O)(=O)N1CCC(NC(=O)N(CCCN2CCC(Cc3ccccc3)CC2)c2ccccc2)CC1`, 158 to 160 °C; as for `CC(=O)NC[C@H]1CN2C(=O)C[C@@H]2O1`, 82.5 to 84.5 °C.
`N#Cc1ccc2sc3c(c2c1)CC(CO)CC3` (stereo not given) yielded a melting point of 165 to 166 °C.
`O=C1CCC(N2Cc3c(OCc4ccc(CN5CCCCC5)cc4)cccc3C2=O)C(=O)N1` (stereo not given) showed a melting point of 186 to 188 °C.
As for `O=[N+]([O-])c1ccccc1-c1ccno1`, the melting point was in the range of 66 to 69 °C.
The result for `COCOc1ccc(O)cc1OC` reads 70 to 72 °C; that for `Cc1nc(SCc2ncccc2C(=O)O)sc1CC(=O)O`, 225 to 227 °C; that for `COc1ccc(Cl)c2c1CCCC2=O`, 46 to 48 °C.
For the molecule `Oc1nc(Cl)nc(NN=Cc2cc(C(F)(F)F)cc(C(F)(F)F)c2)n1`, the melting point amounted to 258 °C.
`COc1cc2cc(COC(C)=O)c(C(=O)OC3OC(CO)C(O)C(O)C3O)c(-c3ccc4c(c3)OCO4)c2cc1OC` (stereo not given) came in with a melting point of 127 to 130 °C.
`COC(=O)Cc1ccccc1OCc1ccc(OCCc2nc(-c3ccccc3)oc2C)nc1` registered a melting point of 78 to 79 °C.
As to `CCCc1c(O)c(O)c(C(=O)O)c2cc(Cc3ccccc3)c(C)cc12`, the melting point was 183 to 184 °C.
For the molecule `CN1C(=O)CCC2(C)c3ccc(Sc4ccccc4Cl)cc3CCC12` (single isomer, unassigned; (+)), the melting point lay within 123 to 125 °C.
The result for `COc1ccc2c(c1)C(c1ccc(OCCN(C(C)C)C(C)C)cc1)c1c-2ccc2ccccc12` (stereo not given) reads 106 to 115 °C; that for `CCOC(=O)c1ncn2c1CN(Cc1ccc(OC)cc1OC)C(=O)c1cc(F)ccc1-2`, 159 to 160 °C.
For the molecule `O=c1nc(-c2cccc(S(=O)CCCc3ccccc3)n2)sc2ccccc12` (stereo not given), the melting point was 164 to 166 °C.
Consider `CC1(C)OC(=O)C(OC2CCc3ccccc32)=C1c1ccc(S(C)(=O)=O)cc1` (stereo not given), for which the melting point lay in the range of 128 to 129 °C.
`COC(=O)c1ccc(C#CC(=O)c2ccc3c(c2)C(C)(C)CCC3(C)C)cc1` displayed a melting point of 113 to 114 °C.
In the case of `Nc1ccc(-c2cc(=O)c3cccnc3o2)cc1`, the melting point is 254 to 255 °C.
As to `CC(C)(C)COc1ccc(-n2cc(C(=O)O)cn2)cc1C#N`, the melting point fell in the range of 199 to 200 °C.
For `Fc1cc(Cl)ccc1-n1nc2c(c1Br)CCC2`, the melting point lay within 106 to 110 °C.
The result for `O=C1CCC(N2Cc3cc(CNC(=O)N4CCOCC4)ccc3C2=O)C(=O)N1` (stereo not given) reads 208 to 210 °C; that for `Cc1nn(-c2ccccn2)c(=O)cc1-c1ccc(O)cc1`, 252 to 254 °C.
As for `O=C1Nc2ccc(Cl)c(Cl)c2C1=O`, the figure is 239 to 240 °C.
Consider `COc1ccc(Cl)c([N+](=O)[O-])c1Cl`, for which the melting point is 97 to 99 °C.
As for `Cc1cc(C)cc(Nc2nccc(-c3nc4ccccc4s3)n2)c1`, the melting point is 217 to 219 °C.
Turning to `CNS(=O)(=O)Cc1ccc2[nH]cc(CCCN3C(=O)c4ccccc4C3=O)c2c1`, the melting point fell in the range of 58 to 66 °C.
As for `Oc1cccnc1Sc1cccc(Br)c1`, the figure is 125 to 126 °C.
The result for `Oc1ccc(C(=C(Cl)c2ccccc2)c2ccccc2)cc1` reads 127 to 129 °C; that for `COc1ccc(CCc2ccccn2)cc1OCCCCCc1ccccc1`, 59 to 62 °C.
As for `O=C(O)c1ccc(OCCCOc2ccccc2)cc1O`, the figure is 161 °C; as for `BrCCC1(c2ccccc2)OCCO1`, 57 to 58 °C.
Regarding `O=C1O[C@@H](Cn2ccnn2)CN1c1ccc(-c2ccc(C3=NOC(C4(O)CCCC4)C3)nc2)c(F)c1` (stereo not given in full), the melting point worked out at 225 °C.
Turning to `CNC(=S)NCCSCc1nscc1Br`, the melting point lay within 62 to 63 °C.
Take `C=C1N(c2cccc3ccccc23)C(=O)OC12CCN(CCC=C(c1ccc(F)cc1)c1ccc(F)cc1)CC2`: the melting point is 99 to 101 °C.
As for `COCCOCCOCC(=O)Nc1c(I)c(N)c(I)c(C(=O)O)c1I`, the figure is 177 to 178 °C; as for `NC(=O)C1(c2c(F)cccc2F)CC1`, 137 to 138 °C.
`COc1ccc2c(c1)-c1nn(CCO)c3cccc(c13)N2` returned a melting point of 275 to 276 °C.
As for `NC(=O)N(O)CC1CCC1`, the figure is 112 to 113 °C; as for `CC(C)(C)OC(=O)Nc1nc(/C(=N/OC(c2ccccc2)(c2ccccc2)c2ccccc2)C(=O)O)cs1`, 157 to 158 °C.
The molecule `CCCCNC(=O)c1nc2cnn(CC)c2nc1-c1ccccc1` registered a melting point of 127 to 128 °C.
The result for `COc1ccc(C(C)CC(=O)N2C(=O)OCC2C(C)C)cc1` (stereo not given) reads 62 to 63.5 °C; that for `CNC(=O)c1ncc2[nH]c3ccc(N)cc3c2c1C`, 281 to 285 °C; that for `CC(C)(C)C=Cc1nn(-c2ccc(F)cc2F)c2c1C1CCC2C1` (stereo not given), 98 to 101 °C.
The result for `NC(=O)[C@@H]1[C@H](NC(=O)/C(=N\OCC(=O)OCc2ccc([N+](=O)[O-])cc2)c2csc(NC(=O)CCl)n2)C(=O)N1OCC(=O)OCc1ccc([N+](=O)[O-])cc1` reads 147 to 153 °C; that for `C[C@H]1[C@@H](C#N)CCN1c1ccc(C#N)c2ccccc12`, 143 to 145 °C.
For `O=C(N[C@H]1CC[C@H](CCN2CCN(c3nccc4c3OCC4)CC2)CC1)c1ccc(-c2ccccc2)cc1`, the melting point stood at 220 °C.
Regarding `Cc1nc(-c2cccc(I)c2)no1`, the melting point is 90 to 91.5 °C.
The molecule `CCCCc1nc2c(N)nc3ccccc3c2n1CCCCSc1ccccc1` showed a melting point of 118 to 120 °C.
